In patent US6670363B1, “Azole compounds as therapeutic agents for fungal infections” (Ranbaxy Laboratories Limited, priority 2000, dated 2003):
≈ marks a conversion by molar mass, not a printed value.

Key:
[1] = system: isolates of Aspergillus species; conditions: cited from earlier work
[2] = molecular target: lanosterol 14α—demethylase; conditions: target enzyme in the fungus; read-out: IC50 against lanosterol 14α-demethylase; cited from earlier work
A. fumigatus s 1008 = assay: In vitro MIC, NCCLS M38P broth method (RPMI 1640/MOPS pH7), Aspergillus fumigatus; format: cell-based; conditions: A. fumigatus strain 1008
Candida = assay: In vitro MIC, NCCLS M27A, Candida species; format: cell-based; design: MIC, Candida albicans 1.549 / MIC, Candida albicans Y-01-19 / MIC, C. krusei 766-1 / MIC, C. krusei Q. C / MIC, Candida tropicalis ATCC / MIC, C. glabrata 90030: unit not given beside the values; MIC, Candida albicans A 26 / MIC, C. parapsilosis Q. C.: unit not given here; conditions: for MIC, C. glabrata 90030: C. glabrata strain 90030; for MIC, C. krusei 766-1: C. krusei strain 766-1; for MIC, C. krusei Q. C: C. krusei strain Q. C; for MIC, C. parapsilosis Q. C.: C. parapsilosis strain Q. C.; for MIC, Candida albicans 1.549: Candida albicans strain 1.549; for MIC, Candida albicans A 26: Candida albicans strain A 26; for MIC, Candida albicans Y-01-19: Candida albicans strain Y-01-19
Cryptococcus neoformans = assay: In vitro MIC, NCCLS M27A, Cryptococcus neoformans; format: cell-based; design: MIC, C. neoformans I: unit not given beside the values; MIC, C. neoformans M 106: unit not given here; conditions: for MIC, C. neoformans I: C. neoformans strain I; for MIC, C. neoformans M 106: C. neoformans strain M 106
Histoplasma capsulatum = format: cell-based

| SMILES | minimum inhibitory concentration (MIC) [1] [µg/mL] | IC50 [2] [µM] | MIC, A. fumigatus 1008 (A. fumigatus s 1008) | MIC, C. glabrata 90030 (Candida) | MIC, C. krusei 766-1 (Candida) | MIC, C. krusei Q. C (Candida) | MIC, C. parapsilosis Q. C. (Candida) | MIC, Candida albicans 1.549 (Candida) | MIC, Candida albicans A 26 (Candida) | MIC, Candida albicans Y-01-19 (Candida) | MIC, Candida tropicalis ATCC (Candida) | MIC, C. neoformans I (Cryptococcus neoformans) | MIC, C. neoformans M 106 (Cryptococcus neoformans) | MIC, H. capsulatum (Histoplasma capsulatum) [µg/mL] | melting point [°C] |
| --- | --- | --- | --- | --- | --- | --- | --- | --- | --- | --- | --- | --- | --- | --- | --- |
| OC(Cn1cncn1)(Cn1cncn1)c1ccc(F)cc1F [fluconazole] | 400 (≈ 1310 µM) | 4.8 | – | – | – | – | – | – | – | – | – | – | – | – | – |
| O=c1n(-c2ccc(N3CCN(c4ccc(Cl)cc4)CC3)cc2)cnn1CC(O)(Cn1cncn1)c1ccc(F)cc1F (centres unmarked) [Compound 47, 2-[2-(2,4-Difluorophenyl)-2-hydroxy-3-(1H-1,2,4-triazol-1-yl)propyl]-4-{4-[4-(4-chlorophenyl)-1-piperazinyl]phenyl}-3-(2H,4H)-1,2,4-triazolone] | – | – | 3.12 | 3.12 | 1.56 | 1.56 | <0.02 | 0.20 | <0.02 | 0.20 | <0.02 | <0.02 | 0.40 | 0.05 (≈ 0.0843 µM) | 207 to 208 |
| Cc1ccc(N2CCN(c3ccc(-n4cnn(CC(O)(Cn5cncn5)c5ccc(F)cc5F)c4=O)cc3)CC2)c(C)c1 (centres unmarked) [Compound 54, 2-[2-(2,4-Difluorophenyl)-2-hydroxy-3-(1H-1,2,4-triazol-1-yl)propyl]-4-{4-[4-(2,4-dimethylphenyl)-1-piperazinyl]phenyl}-3-(2H,4H)-1,2,4-triazolone] | – | – | 2.00 | 1.00 | 0.50 | 0.12 | <0.03 | 8.00 | <0.03 | 0.12 | <0.03 | <0.03 | <0.03 | 0.06 (≈ 0.102 µM) | 76 to 77 |
| O=c1n(-c2ccc(N3CCN(c4ccc(F)c(Cl)c4)CC3)cc2)cnn1CC(O)(Cn1cncn1)c1ccc(F)cc1F (centres unmarked) [Compound 53, 2-[2-(2,4-Difluorophenyl)-2-hydroxy-3-(1H-1,2,4-triazol-1-yl)propyl]-4-{4-[4-(3-chloro-4-fluorophenyl)-1-piperazinyl]phenyl}-3-(2H,4H)-1,2,4-triazolone] | – | – | 4.00 | 0.50 | 0.50 | 0.12 | <0.03 | 0.06 | <0.03 | <0.03 | <0.03 | <0.03 | <0.03 | < 0.03 | 182 to 185 |
| CCc1ccccc1N1CCN(c2ccc(-n3cnn(CC(O)(Cn4cncn4)c4ccc(F)cc4F)c3=O)cc2)CC1 (centres unmarked) [Compound 60, 2-[2-(2,4-Difluorophenyl)-2-hydroxy-3-(1H-1,2,4-triazol-1-yl)propyl]-4-{4-[4-(2-ethylphenyl)-1-piperazinyl]phenyl}-3-(2H,4H)-1,2,4-triazolone] | – | – | >16 | 0.50 | 1.00 | 0.25 | <0.03 | >16 | <0.03 | 0.25 | <0.03 | <0.03 | <0.03 | < 0.03 | 148 to 150 |
| O=c1n(-c2ccc(N3CCN(c4cccc(C(F)(F)F)c4)CC3)cc2)cnn1CC(O)(Cn1cncn1)c1ccc(F)cc1F (centres unmarked) [Compound 51, 2-[2-(2,4-Difluorophenyl)-2-hydroxy-3-(1H-1,2,4-triazol-1-yl)propyl]-4-{4-[4-(3-trifluoromethylphenyl)-1-piperazinyl]phenyl}-3-(2H,4H)-1,2,4-triazolone] | – | – | >16 | 1.00 | 1.00 | 0.25 | 0.06 | 0.25 | <0.03 | 0.25 | <0.03 | <0.03 | <0.03 | < 0.03 | 166 to 168 |
| O=c1n(-c2ccc(N3CCN(c4ccc(F)c(F)c4F)CC3)cc2)cnn1CC(O)(Cn1cncn1)c1ccc(F)cc1F (centres unmarked) [Compound 63, 2-[2-(2,4-Difluorophenyl)-2-hydroxy-3-(1H-1,2,4-triazol-1-yl)propyl]-4-{4-[4-(2,3,4-trifluorophenyl)-1-piperazinyl]phenyl}-3-(2H,4H)-1,2,4-triazolone] | – | – | >16 | 0.50 | 8.00 | 0.25 | <0.03 | 0.06 | <0.03 | 0.12 | <0.03 | <0.03 | <0.03 | < 0.03 | 186 to 187 |
| O=c1n(-c2ccc(N3CCN(c4ccc(O)cc4)CC3)cc2)cnn1CC(O)(Cn1cncn1)c1ccc(F)cc1F (centres unmarked) [Compound 44, 2-[2-(2,4-Difluorophenyl)-2-hydroxy-3-(1H-1,2,4-triazol-1-yl)propyl]-4-{4-[4-(4-hydroxyphenyl)-1-piperazinyl]phenyl}-3-(2H,4H)-1,2,4-triazolone] | – | – | >12.5 | 6.25 | >12.5 | 6.25 | 0.20 | >12.5 | >12.5 | 1.56 | 6.25 | 1.56 | 3.12 | 1.56 (≈ 2.71 µM) | 246 to 248 |
| O=c1n(-c2ccc(N3CCN(c4ccc([N+](=O)[O-])cc4[N+](=O)[O-])CC3)cc2)cnn1CC(O)(Cn1cncn1)c1ccc(F)cc1F (centres unmarked) [Compound 40, 2-[2-(2,4-Difluorophenyl)-2-hydroxy-3-(1H-1,2,4-triazol-1-yl)propyl]-4-{4-[4-(2,4-dinitrophenyl)-1-piperazinyl]phenyl}-3-(2H,4H)-1,2,4-triazolone] | – | – | 1.56 | 0.80 | 6.25 | 1.56 | 0.05 | 0.40 | <0.02 | 0.40 | 1.56 | 0.05 | 0.20 | 0.05 (≈ 0.0771 µM) | 120 to 123 |
| O=c1n(-c2ccc(N3CCN(c4ccc(F)c(F)c4)CC3)cc2)cnn1CC(O)(Cn1cncn1)c1ccc(F)cc1F (centres unmarked) [Compound 55, 2-[2-(2,4-Difluorophenyl)-2-hydroxy-3-(1H-1,2,4-triazol-1-yl)propyl]-4-{4-[4-(3,4-difluorophenyl)-1-piperazinyl]phenyl}-3-(2H,4H)-1,2,4-triazolone] | – | – | >16 | 0.25 | 1.00 | 0.12 | <0.03 | 0.03 | <0.03 | 0.03 | <0.03 | <0.03 | 0.02 | 0.004 (≈ 0.00673 µM) | 117 to 118 |
